Data taken from PubChem BioAssay (NCI).
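1) Cells in 96-well plates. 2) Compound, 48 h, 5 concentrations. 3) Linear interpolation between surrounding doses. 4) Unreached endpoint = highest concentration. The concentration for 50% growth inhibition is given as GI50. Definition used: TGI = concentration required for complete inhibition of growth.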

Experiments:
Assay in all cases: growth of human tumour cells (NCI), 48 h
SF-295 CNS = tested on: SF-295 CNS
OVCAR-4 ovarian = tested on: OVCAR-4 ovarian
MCF7 breast = tested on: MCF7 breast
HT29 colon = tested on: HT29 colon
NCI/ADR-RES ovarian = tested on: NCI/ADR-RES ovarian
MDA-MB-231 breast = tested on: MDA-MB-231 breast
T-47D breast = tested on: T-47D breast
HOP-92 NSCLC = tested on: HOP-92 NSCLC
SK-OV-3 ovarian = tested on: SK-OV-3 ovarian
HCC-2998 colon = tested on: HCC-2998 colon

| SMILES | GI50 (SF-295 CNS) [µM] | TGI (SF-295 CNS) [µM] | GI50 (OVCAR-4 ovarian) [µM] | TGI (OVCAR-4 ovarian) [µM] | GI50 (MCF7 breast) [µM] | TGI (MCF7 breast) [µM] | GI50 (HT29 colon) [µM] | TGI (HT29 colon) [µM] | GI50 (NCI/ADR-RES ovarian) [µM] | TGI (NCI/ADR-RES ovarian) [µM] | GI50 (MDA-MB-231 breast) [µM] | TGI (MDA-MB-231 breast) [µM] | GI50 (T-47D breast) [µM] | TGI (T-47D breast) [µM] | GI50 (HOP-92 NSCLC) [µM] | TGI (HOP-92 NSCLC) [µM] | GI50 (SK-OV-3 ovarian) [µM] | TGI (SK-OV-3 ovarian) [µM] | GI50 (HCC-2998 colon) [µM] | TGI (HCC-2998 colon) [µM] |
| --- | --- | --- | --- | --- | --- | --- | --- | --- | --- | --- | --- | --- | --- | --- | --- | --- | --- | --- | --- | --- |
| CNC(=O)n1ccc2cc(Oc3ccnc(NC(=O)c4ccc(C5CCN(CCO)CC5)cc4)c3)c(OCCOC)cc21 | 8.54 | 21 | 1.99 | 5.78 | 4.33 | 19.5 | 0.801 | 11.1 | 12.9 | 42.4 | 2.46 | 6.11 | 11.8 | 36 | 3.48 | 20.6 | 10.5 | 23.1 | 8.57 | 21.3 |
| Cc1ccc(/C=C2\CN(C(=O)OC(C)(C)C)C/C(=C\c3ccc(C)cc3)C2=O)cc1 | 0.0685 | > 100 | 3.04 | > 100 | 0.205 | > 100 | 0.46 | > 40.7 | 0.281 | > 100 | 1.22 | > 54.3 | – | > 100 | 8.97 | > 100 | – | 97.5 | 0.268 | 0.927 |
| Nc1c(C(=O)Nc2cccc([N+](=O)[O-])c2)sc2nc3c(cc12)C(O)CCC3 (stereo not drawn) | 4.35 | > 54 | > 36.2 | > 100 | 3.14 | > 100 | 2.89 | > 100 | 4.72 | > 100 | 21.3 | > 100 | 6.59 | > 100 | 9.54 | > 67 | 10.2 | > 100 | > 100 | > 100 |
| CN(C)S(=O)(=O)c1ccc(NC(=O)COC(=O)c2ccc(S(=O)(=O)N3CCCCC3)cc2)cc1 | > 100 | > 100 | > 100 | > 100 | > 100 | > 100 | > 100 | > 100 | > 100 | > 100 | > 100 | > 100 | > 100 | > 100 | > 100 | > 100 | > 100 | > 100 | > 100 | > 100 |
| C[C@@H](C(=O)Nc1ccc(Cl)cc1)C1CCC(c2ccnc3ccc(F)cc23)CC1 (stereo partly drawn) | 8.12 | > 100 | 5.93 | > 100 | 4.4 | 97.5 | 5.81 | 40.4 | 10.1 | 48 | 7.83 | 48 | 3.36 | 46.1 | 2.85 | 9.15 | 15.3 | 73.8 | 4.35 | 24.3 |
| N#Cc1cnc2cc(OC[C@H](O)CO)c(NC(=O)CC3CSSC3)cc2c1Nc1ccc(OCc2cccc(F)c2)c(Cl)c1 | 0.83 | 1.6 | 0.619 | 1.57 | 0.0865 | 0.176 | 0.221 | 0.836 | 2.72 | 5.1 | 0.288 | 1.03 | 0.575 | 1.47 | 2.23 | 8.04 | 0.748 | 1.48 | 0.796 | 1.55 |
